According to patent publication EP4650002A1 (Ludwig-Maximilians-Universität, priority 2024, dated 2025):

Target: T1, human TLX (Homo sapiens, UniProt Q9Y466)
T1 construct: expressed in transfected cells; host or cells: HEK293T
Assay: Gal4 hybrid reporter gene assay (TLX modulation)
Format: cell-based
Parameters: key to relative reporter activity: fraction of DMSO control (DMSO = 1)
Conditions: for relative reporter activity: DMSO control = 1; for EC50: Gal4-TLX hybrid reporter in HEK293T cells, 16 h incubation
Experimental: In the Tables, the TLX relative reporter activity is expressed as EC50 (in µM) for each listed compound. "EC50" refers to a measure of the concentration of a compound which induces a biological response halfway between the baseline and maximum after a specified exposure time. […] The EC50 is measured via a hybrid reporter gene assay, employing the transfection of a reporter (firefly luciferase with Gal4 response element), a control gene (Renilla luciferase), a transcriptional activator (Gal4-VP16) and a hybrid receptor consisting of the TLX ligand binding domain (LBD) and the Gal4 DNA binding domain (DBD).
Hybrid reporter gene assays. […] After 24 h, medium was changed to Opti-MEM without supplements and cells were transiently transfected using Lipofectamine LTX reagent (Invitrogen, Carlsbad, CA, USA) according to the manufacturer's protocol. Five hours after transfection, cells were incubated with the test compounds in Opti-MEM supplemented with penicillin (100 U/mL), streptomycin (100 µg/mL) and 0.1% DMSO for 16 h before luciferase activity was measured using the Dual-Glo Luciferase Assay System (Promega) according to the manufacturer's protocol on a Tecan Spark luminometer (Tecan Deutschland GmbH, Crailsheim, Germany). Firefly luminescence was divided by Renilla luminescence and multiplied by 1000 resulting in relative light units (RLU) to normalize for transfection efficiency and cell growth. Fold activation was obtained by dividing the mean RLU of test compound by the mean RLU of the untreated control. All samples were tested in at least three biologically independent experiments in duplicates. For dose-response curve fitting and calculation of EC50 values, the equation "[Agonist] vs. response -- Variable slope (four parameters)" was used in GraphPad Prism (version 7.00, GraphPad Software, La Jolla, CA, USA).

[1] = minimal remaining or maximum reporter activity after treatment, in brackets below the EC50, <1 agonism, >1 inverse agonism

T1 sequence (Q9Y466 155-383 limits assumed): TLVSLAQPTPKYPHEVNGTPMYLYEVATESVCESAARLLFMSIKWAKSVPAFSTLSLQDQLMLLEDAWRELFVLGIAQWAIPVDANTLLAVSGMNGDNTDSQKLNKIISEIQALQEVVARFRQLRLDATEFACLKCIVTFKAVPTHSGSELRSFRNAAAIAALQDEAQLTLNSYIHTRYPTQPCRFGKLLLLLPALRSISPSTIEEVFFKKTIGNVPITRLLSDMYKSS

Row | EC50 [µM] | relative reporter activity [1] | SMILES | also measured
1 | 4.4 ± 0.9 |  | Nc1cc(-n2ccnc2)cc(C(F)(F)F)c1 [compound 33, 3-(1H-imidazol-1-yl)-5-(trifluoromethyl)aniline] | 
2 | 15 ± 7 | 0.23±0.15 | Nc1cc(-n2cccc2)cc(C(F)(F)F)c1 [compound 34, 3-(1H-pyrrol-1-yl)-5-(trifluoromethyl)aniline] | 
3 | 2.4 ± 0.9 |  | Nc1cc(-n2cnc3ccccc32)cc(C(F)(F)F)c1 [compound 35, 3-(1H-benzo[d]imidazol-1-yl)-5-(trifluoromethyl)aniline] | 
4 | 9.5 ± 4.4 | 0.43±0.11 | Cn1cc(-c2cc(N)cc(C(F)(F)F)c2)cn1 [compound 38, 3-(1-methyl-1H-pyrazol-4-yl)-5-(trifluoromethyl)aniline] | 
5 | 3.2 ± 1.2 | 0.47±0.06 | Nc1cc(-c2cnoc2)cc(C(F)(F)F)c1 [compound 40, 3-(isoxazol-4-yl)-5-(trifluoromethyl)aniline] | 
6 | 3.9 ± 1.6 | 0.49±0.11 | Cc1c(-c2cc(N)cc(C(F)(F)F)c2)cnn1C [compound 49, 3-(1,5-dimethyl-1H-pyrazol-4-yl)-5-(trifluoromethyl)aniline] | 

The remaining lines, values behind:

Row | SMILES | EC50 [µM] | relative reporter activity [1] | also measured
7 | Cc1cn(-c2cc(NC(=O)c3cccc4ccccc34)cc(C(F)(F)F)c2)cn1 [compound 6, N-(3-(4-methyl-1H-imidazol-1-yl)-5-(trifluoromethyl)phenyl)-1-naphthamide] |  |  | relative reporter activity (at 3 µM): (0.79±0.03 at 3 µM)
8 | CCOc1cc(C(=O)Nc2cc(-n3cnc(C)c3)cc(C(F)(F)F)c2)c2ccccc2n1 [compound 8, 2-ethoxy-N-(3-(4-methyl-1H-imidazol-1-yl)-5-(trifluoromethyl)phenyl)quinoline-4-carboxamide] | 1.1 ± 0.3 | 0.57±0.04 | 
9 | Cc1cn(-c2cc(NC(=O)c3ccncc3)cc(C(F)(F)F)c2)cn1 [compound 11, N-(3-(4-methyl-1H-imidazol-1-yl)-5-(trifluoromethyl)phenyl)isonicotinamide] |  |  | relative reporter activity (at 20 µM): (0.41±0.05 at 20 µM)
10 | Cc1cn(-c2cc(NC(=O)c3ccnc(Cl)c3)cc(C(F)(F)F)c2)cn1 [compound 12, 2-chloro-N-(3-(4-methyl-1H-imidazol-1-yl)-5-(trifluoromethyl)phenyl)-isonicotinamide] |  |  | relative reporter activity (at 10 µM): (0.71±0.05 at 10 µM)
11 | Cc1cn(-c2cc(NC(=O)c3ccccc3)cc(C(F)(F)F)c2)cn1 [compound 14, N-(3-(4-methyl-1H-imidazol-1-yl)-5-(trifluoromethyl)phenyl)benzamide] | 8 ± 1 | 0.38±0.08 | 
12 | Cc1cn(-c2cc(NC(=O)c3ccc(Cl)cc3)cc(C(F)(F)F)c2)cn1 [compound 15, 4-chloro-N-(3-(4-methyl-1H-imidazol-1-yl)-5-(trifluoromethyl)phenyl)benzamide] | 2.3 ± 0.3 | 0.41±0.05 | 
13 | Cc1cn(-c2cc(NC(=O)c3ccc(Cl)c(Cl)c3)cc(C(F)(F)F)c2)cn1 [compound 16, 3,4-dichloro-N-(3-(4-methyl-1H-imidazol-1-yl)-5-(trifluoromethyl)phenyl)-benzamide] | 2.1 ± 0.9 | 0.33±0.12 | 
14 | COc1ccc(C(=O)Nc2cc(-n3cnc(C)c3)cc(C(F)(F)F)c2)cc1 [compound 17, 4-methoxy-N-(3-(4-methyl-1H-imidazol-1-yl)-5-(trifluoromethyl)phenyl)benzamide] | 5.2 ± 0.4 | 0.42±0.03 | 
15 | Cc1ccc(C(=O)Nc2cc(-n3cnc(C)c3)cc(C(F)(F)F)c2)cc1 [compound 18, 4-methyl-N-(3-(4-methyl-1H-imidazol-1-yl)-5-(trifluoromethyl)phenyl)benzamide] | 1.4 ± 0.7 | 0.59±0.06 | 
16 | Cc1cn(-c2cc(NC(=O)c3ccc(C(F)(F)F)cc3)cc(C(F)(F)F)c2)cn1 [compound 19, N-(3-(4-mefhyl-1H-imidazol-1-yl)-5-(trifluoromefhyl)phenyl)-4-(frifluoromethyl)-benzamide] | 3.3 ± 1.2 | 0.59±0.10 | 
17 | Cc1cn(-c2cc(NC(=O)Cc3cccnc3)cc(C(F)(F)F)c2)cn1 [compound 21, N-(3-(4-methyl-1H-imidazol-1-yl)-5-(trifluoromethyl)phenyl)-2-(pyridin-3-yl)acetamide] | 1.4 ± 0.3 | 0.21±0.07 | 
18 | Cc1cn(-c2cc(NC(=O)c3ccc(Cl)c4ccccc34)cc(C(F)(F)F)c2)cn1 [compound 31, 4-chloro-N-(3-(4-methyl-1H-imidazol-1-yl)-5-(trifluoromethyl)phenyl)-1-naphthamide] | 1.8 ± 0.4 | 0.34±0.11 | 
19 | O=C(Nc1cc(-n2cnc3ccccc32)cc(C(F)(F)F)c1)c1ccnc2ccccc12 [compound 36, N-(3-(1H-benzo[d]imidazol-1-yl)-5-(trifluoromethyl)phenyl)quinoline-4-carboxamide] |  |  | relative reporter activity (at 10 µM): (0.24±0.04 at 10 µM
20 | Cc1cnn(-c2cc(N)cc(C(F)(F)F)c2)c1 [compound 37, 3-(4-methyl-1H-pyrazol-1-yl)-5-(trifluoromethyl)aniline] |  |  | relative reporter activity (at 100 µM): (0.48±0.09 at 100 µM)
21 | Nc1cc(-c2cn[nH]c2)cc(C(F)(F)F)c1 [compound 39, 3-(1H-Pyrazol-4-yl)-5-(trifluoromethyl)aniline] |  |  | relative reporter activity (at 50 µM): (0.35±0.06 at 50 µM)
22 | Cc1nn(C)c(C)c1-c1cc(N)cc(C(F)(F)F)c1 [compound 41, 3-(trifluoromethyl)-5-(1,3,5-trimethyl-1H-pyrazol-4-yl)aniline] | 4.2 ± 0.9 | 0.34±0.09 | 

Row | SMILES | EC50 [µM] | relative reporter activity [1] | also measured
23 | Cc1noc(C)c1-c1cc(N)cc(C(F)(F)F)c1 [compound 42, 3-(3,5-dimethylisoxazol-4-yl)-5-(trifluoromethyl)aniline] |  |  | relative reporter activity (at 10 µM): (0.70±0.07 at 10 µM)
24 | Cc1cc(-c2cc(N)cc(C(F)(F)F)c2)n[nH]1 [compound 43, 3-(5-methyl-1H-pyrazol-3-yl)-5-(trifluoromethyl)aniline] |  |  | relative reporter activity (at 100 µM): (0.29±0.05 at 100 µM)
25 | Cn1cnc(-c2cc(N)cc(C(F)(F)F)c2)n1 [compound 44, 3-(1-methyl-1H-1,2,4-triazol-3-yl)-5-(trifluoromethyl)aniline] |  |  | relative reporter activity (at 100 µM): (0.63±0.04 at 100 µM)
26 | Cc1cc(-c2cc(N)cc(C(F)(F)F)c2)nn1C [compound 45, 3-(1,5-dimethyl-1H-pyrazol-3-yl)-5-(trifluoromethyl)aniline] |  |  | relative reporter activity (at 100 µM): (0.56±0.12 at 100 µM)
27 | Cc1cc(C(=O)Nc2cc(N)cc(C(F)(F)F)c2)nn1C [compound 46, N-(3-amino-5-(trifluoromethyl)phenyl)-1,5-dimethyl-1H-pyrazole-3-carboxamide] | 11 ± 5 | 0.20±0.02 | 
28 | Cc1nc(-c2cc(N)cc(C(F)(F)F)c2)cn1C [compound 50, 3-(1,2-dimethyl-1H-imidazol-4-yl)-5-(trifluoromethyl)aniline] |  |  | relative reporter activity (at 100 µM): (0.70±0.06 at 100 µM)
29 | Cn1cc(-c2cc(N)cc(C(F)(F)F)c2)c2ccccc21 [compound 51, 3-(1-Methyl-1H-indol-3-yl)-5-(trifluoromethyl)aniline] | 9.1 ± 0.7 |  | 
30 | Cn1cc(-c2cc(N)cc(C(F)(F)F)c2)c2cccnc21 [compound 52, 3-(1-methyl-1H-pyrrolo[2,3-b]pyridin-3-yl)-5-(trifluoromethyl)aniline] | 3.5 ± 0.8 |  | 
31 | Nc1cc(-c2nccs2)cc(C(F)(F)F)c1 [compound 53, 3-(thiazol-2-yl)-5-(trifluoromethyl)aniline] |  |  | relative reporter activity (at 100 µM): (0.63±0.10 at 100 µM)
32 | Cc1cnc(-c2cc(N)cc(C(F)(F)F)c2)s1 [compound 54, 3-(5-methylthiazol-2-yl)-5-(trifluoromethyl)aniline] |  |  | relative reporter activity (at 30 µM): (0.46±0.21 at 30 µM)
33 | Cc1ccc(-c2cc(N)cc(C(F)(F)F)c2)s1 [compound 55, 3-(5-methylthiophen-2-yl)-5-(trifluoromethyl)aniline] |  |  | relative reporter activity (at 30 µM): 2.2±0.6
34 | Cc1cc(C)c(-c2cc(N)cc(C(F)(F)F)c2)s1 [compound 56, 3-(3,5-dimethylthiophen-2-yl)-5-(trifluoromethyl)aniline] |  |  | relative reporter activity (at 50 µM): 3.4±0.3
35 | CC(=O)c1ccc(-c2cc(N)cc(C(F)(F)F)c2)s1 [compound 57, 1-(5-(3-amino-5-(trifluoromethyl)phenyl)thiophen-2-yl)ethan-1-one] | 4.4 ± 1.6 |  | 
36 | COC(=O)c1ccc(-c2cc(N)cc(C(F)(F)F)c2)s1 [compound 58, methyl 5-(3-amino-5-(trifluoromethyl)phenyl)thiophene-2-carboxylate] | 3.5 ± 1.8 |  | 
37 | Cc1cc(-c2cc(N)cc(C(F)(F)F)c2)cs1 [compound 59, 3-(5-methylthiophen-3-yl)-5-(trifluoromethyl)aniline] |  |  | relative reporter activity (at 30 µM): 2.8±0.5
